The values below come from patent publication US20150259331A1, “PROTOZOAN PARASITE GROWTH INHIBITORS” (Northeastern University, priority 2014, published 2015).

Like-named read-outs stand apart in the source and are kept apart here.

By fraction unbound is commonly meant the share of the substance not bound to proteins or other matrix.

For data set [1], the system named is L. major promastigote. The experiment in a line: L. major promastigote assay. The class given is cell-based. The settings on record: Leishmania major.
For data set [2], the system named is T. brucei brucei Lister 427. The experiment in a line: Trypanosome replication assay. The class given is cell-based, Trypanosoma brucei brucei. The settings on record: Trypanosoma brucei; for inhibition at 5 µM: read-out: Tbb % inh at 5 μM; for EC50: 48 h, values ±7%.
Data set [3] has as its system T. cruzi. The experiment in a line: T. cruzi growth inhibition. The class given is cell-based, Trypanosoma cruzi. The settings on record: Trypanosoma cruzi.
Data set [4] is described as follows: HepG2 cell toxicity (MTT) assay. The settings on record: human, HepG2 cells; Table 13; read-out: HepG2 TC50. The class given is cell-based.
In data set [5] the test system is L. major amastigote. The experiment in a line: L. major amastigote assay. The class given is cell-based. The settings on record: Leishmania major.
Data set [6] concerns P. fal. The experiment in a line: P. fal assay of Table 13 (strain not given). The class given is cell-based, P. falciparum. The settings on record: Plasmodium falciparum.
The test system of data set [7] is T. brucei brucei Lister 427. The settings on record: published activities of HAT treatments and SCYX-7158; read-out: Tbb EC50; cited from earlier work.
Data set [8] concerns HepG2 cells. The experiment in a line: HepG2 cell toxicity (MTT) assay. The class given is cell-based. The settings on record: Table 13; read-out: HepG2 TC50.
Data set [9] can be described thus: in vitro. The settings on record: male, BALB/c, mouse. Here is the method: Mice plasma (BALB/c mice, male—pool of 3 animals) was collected in-house using K2EDTA as anticoagulant. […] Glipizide (Cat #50402G) was purchased from Apin chemicals, Abingdon, Oxon. Albendazole (Cat #A4673) was purchased from Sigma. Phosphate buffered saline pH 7.4 (0.1 M sodium phosphate and 0.15 M sodium chloride) and RED device inserts were procured from Thermo Scientific, Meridian Rd., Rockford, Ill.
Further 1 mM stock was diluted 200-fold in mice plasma to prepare a concentration of 5 μM. The final DMSO concentration in plasma was 0.5%.
Rapid equilibrium dialysis was performed with a rapid equilibrium dialysis (RED) device containing dialysis membrane with a molecular weight cut-off of 8,000 Daltons. Each dialysis insert contains two chambers. The red chamber is for plasma while the white chamber is for buffer. A 200 μL aliquot of warfarin or test compound at 5 μM (triplicates) was separately added to the plasma chamber and 350 μL of phosphate buffer saline (pH 7.4) was added to the buffer chamber of the inserts. After sealing the RED device with an adhesive film, dialysis was performed at 37° C. with shaking at 100 rpm for 4 hours as per manufacturer's recommendation.
Recovery and stability: A 50 μL aliquot of warfarin or test compound was added to four 0.5 mL microfuse tubes. Two aliquots were frozen immediately (0 minute sample). The other two aliquots were incubated at 37° C. for 4 hours along with the RED device.
Following dialysis, an aliquot of 50 μL was removed from each well (both plasma and buffer side) and diluted with equal volume of opposite matrix (dialyzed with the other matrix) to nullify the matrix effect. Similarly, 50 μL of buffer was added to recovery and stability samples. An aliquot of 100 μL was submitted for LC-MS/MS analysis.
A 25 μL aliquot of warfarin and test compounds were crashed with 100 μL of acetonitrile containing internal standard (glipizide for warfarin and test compound) and vortexed for 5 minutes. The samples were centrifuged at 15,000 rpm at 4° C. for 10 min and 100 μL of supernatant was submitted for LCMS/MS analysis. Samples were monitored for parent compound in MRM mode using LC-MS/MS.

The mark [10] stands for this setting: concentration giving 50% inhibition of growth of T brucei brucei Lister 427 cells, read-out: Tbb EC50.
The mark [11] stands for this setting: read-out: Tbb EC50, concentration giving 50% inhibition of growth of T brucei brucei Lister 427 cells.

In the case of `Fc1cccc(COc2ccc(Nc3nccc4cc(-c5cccc(N6CCOCC6)c5)ccc34)cc2Cl)c1` [NEU-946, N-(3-Chloro-4-((3-fluorobenzyl)oxy)phenyl)-6-(3-morpholinophenyl)isoquinolin-1-amine], the EC50 in data set [1] was > 15000 nM; in data set [3], > 50000 nM; in [5] it was 2200 nM; in data set [6], 2800 nM. For the same molecule, the inhibition at 5 µM in [2] came out at 12%. Also, the CC50 at 48 h in data set [4] is > 15000 nM.
Take `CC1(C)OB(O)c2cc(NC(=O)c3ccc(F)cc3C(F)(F)F)ccc21` [SCYX-7158]: the EC50 in data set [7] was 794 nM.
For the molecule `O=S(=O)(c1ccc(-c2ccc3c(Nc4ccc(OCc5ccccc5)c(Cl)c4)cnnc3c2)cc1)N1CCOCC1` [NEU-1015, N-(4-(Benzyloxy)-3-chlorophenyl)-7-(4-(morpholinosulfonyl)phenyl)cinnolin-4-amine], the EC50 in data set [1] is > 15000 nM; in data set [2] (setting [10]), 1200 nM; in data set [3] it was 15000 nM; in data set [5] it was > 15000 nM; in [6], 150 nM. Besides, the CC50 in data set [8] was > 11000 nM.
As to `CN1CCN(S(=O)(=O)c2ccc(-c3ccc4nccc(Nc5ccc(OCc6cccc(F)c6)c(Cl)c5)c4c3)cc2)CC1` [NEU-960, N-(3-Chloro-4-((3-fluorobenzyl)oxy)phenyl)-6-(4-((4-methylpiperazin-1-yl)sulfonyl)phenyl)quinolin-4-amine], the EC50 in data set [1] amounted to 600 nM; in [2] (setting [10]), 460 nM; in [3], 5300 nM; in [5], 2000 nM; in [6] it was 16000 nM. Also, the CC50 in [8] came to 6400 nM.
For the molecule `CN1CCN(S(=O)(=O)c2ccc(-c3ccc4c(Nc5ccc(OCc6cccc(F)c6)c(Cl)c5)nncc4c3)cc2)CC1` [NEU-1041, N-(3-Chloro-4-((3-fluorobenzyl)oxy)phenyl)-6-(4-((4-methylpiperazin-1-yl)sulfonyl)phenyl)phthalazin-1-amine, Formic Acid], the EC50 in data set [1] was 1300 nM; in [2] (setting [11]) it was 1200 nM; in data set [3], 18000 nM; in data set [5], > 15000 nM; in [6], 45 nM. Besides, the CC50 in [8] was > 15000 nM.
For `CN1CCCN(S(=O)(=O)c2ccc(-c3ccc4nccc(Nc5ccc(OCc6cccc(F)c6)c(Cl)c5)c4c3)cc2)CC1` [NEU-958, N-(3-Chloro-4-((3-fluorobenzyl)oxy)phenyl)-6-(4-((4-methyl-1,4-diazepan-1-yl)sulfonyl)phenyl)quinolin-4-amine], the EC50 in data set [1] was determined as 400 nM; in data set [2] (setting [10]) it was 140 nM; in data set [3], 930 nM; in data set [5], 2300 nM; in data set [6], 86 nM. Moreover, in [8], the CC50 came to 4300 nM.
As to `O=S(=O)(c1ccc(-c2ccc3ccnc(Nc4ccc(OCc5ccccc5)c(Cl)c4)c3c2)cc1)N1CCOCC1` [NEU-949, N-(4-(Benzyloxy)-3-chlorophenyl)-7-(4-(morpholinosulfonyl)phenyl)isoquinolin-1-amine], the EC50 is > 15000 nM in data set [1]; > 2500 nM in data set [2] (setting [10]); > 50000 nM in data set [3]; > 15000 nM in data set [5]; 870 nM in data set [6]. The CC50 at 48 h in [4] was > 15000 nM.
For the molecule `Fc1cccc(COc2ccc(Nc3ccnc4ccc(-c5cccc(N6CCOCC6)c5)cc34)cc2Cl)c1` [NEU-959, N-(3-Chloro-4-((3-fluorobenzyl)oxy)phenyl)-6-(3-morpholinophenyl)quinolin-4-amine], the EC50 in data set [1] turned out to be 900 nM; in [2] (setting [10]), 1000 nM; in data set [3] it was 6600 nM; in data set [5], 4000 nM; in data set [6] it was 35 nM. For the same molecule, the CC50 in data set [8] was 10000 nM.
As for `Nc1nc(N)nc(Nc2ccc([As]3SCC(CO)S3)cc2)n1` (stereo not drawn) [melarsoprol], in data set [7], the EC50 was 6.3 nM.
Turning to `Fc1cccc(COc2ccc(Nc3cnnc4ccc(-c5cccc(N6CCOCC6)c5)cc34)cc2Cl)c1` [NEU-1012, N-(3-Chloro-4-((3-fluorobenzyl)oxy)phenyl)-6-(3-morpholinophenyl)cinnolin-4-amine], the EC50 in data set [1] is > 15000 nM; in data set [2] (setting [10]) it was 1100 nM; in data set [3] it was > 50000 nM; in [5] it was > 15000 nM; in data set [6] it was 540 nM. In addition, the CC50 in [8] was > 15000 nM.
With `N=C(N)c1ccc(OCCCCCOc2ccc(C(=N)N)cc2)cc1` [pentamidine], the EC50 in data set [7] was 3.5 nM.
`Fc1cccc(COc2ccc(Nc3nccc4ccc(-c5cccc(N6CCOCC6)c5)cc34)cc2Cl)c1` [NEU-947, N-(3-Chloro-4-((3-fluorobenzyl)oxy)phenyl)-7-(3-morpholinophenyl)isoquinolin-1-amine]: the EC50 in data set [1] is > 15000 nM; in data set [3], > 50000 nM; in [5] it was 6000 nM; in data set [6] it was 2500 nM. The inhibition at 5 µM in data set [2] amounted to 0.1%. In data set [4], the CC50 at 48 h was > 15000 nM.
For the molecule `O=S(=O)(c1ccc(-c2ccc3cnnc(Nc4ccc(OCc5ccccc5)c(Cl)c4)c3c2)cc1)N1CCOCC1` [NEU-1036, N-(4-(Benzyloxy)-3-chlorophenyl)-7-(4-(morpholinosulfonyl)phenyl)phthalazin-1-amine], the EC50 was > 3400 nM in [1]; 860 nM in data set [2] (setting [10]); > 50000 nM in [3]; > 4000 nM in [5]; 540 nM in [6]. Further, in data set [8], the CC50 is > 5200 nM.
For the molecule `CC(=O)CC(c1ccccc1)c1c(O)c2ccccc2oc1=O` (stereo not drawn) [Warfarin], the recovery at 4 h, 5 μM in data set [9] (pH 7.4) was 95%. In addition, in data set [9] (plasma, 4 h, 5 μM), the “% compound remaining at 4 h” value was determined as 100%. The fraction unbound at 4 h, 5 μM in data set [9] (plasma, pH 7.4, % Bound Mean (SD)) was 0.156; in data set [9] (plasma, pH 7.4, % Bound R1) it was 0.051; in data set [9] (plasma, pH 7.4, % Bound R2), 0.058; in data set [9] (plasma, pH 7.4, % Bound R3), 0.059.
Turning to `CN1CCCN(S(=O)(=O)c2ccc(-c3ccc4c(Nc5ccc(OCc6cccc(F)c6)c(Cl)c5)nncc4c3)cc2)CC1` [NEU-1042, N-(3-Chloro-4-((3-fluorobenzyl)oxy)phenyl)-6-(4-((4-methyl-1,4-diazepan-1-yl)sulfonyl)phenyl)phthalazin-1-amine, Formic Acid], the EC50 turned out to be 410 nM in [1]; 510 nM in data set [2] (setting [11]); 1300 nM in [3]; 1100 nM in [5]; 29 nM in data set [6]. In addition, the CC50 in data set [8] stood at 3400 nM.
`Fc1cccc(COc2ccc(Nc3cnnc4cc(-c5cccc(N6CCOCC6)c5)ccc34)cc2Cl)c1` [NEU-1014, N-(3-Chloro-4-((3-fluorobenzyl)oxy)phenyl)-7-(3-morpholinophenyl)cinnolin-4-amine]: the EC50 in data set [1] was 9800 nM; in data set [2] (setting [10]), 890 nM; in data set [3], 45000 nM; in data set [5], > 15000 nM; in [6], 200 nM. Moreover, the CC50 in data set [8] was 11000 nM.
Regarding `CN1CCCN(S(=O)(=O)c2ccc(-c3ccc4cnnc(Nc5ccc(OCc6cccc(F)c6)c(Cl)c5)c4c3)cc2)CC1` [NEU-1044, N-(3-Chloro-4-((3-fluorobenzyl)oxy)phenyl)-7-(4-((4-methyl-1,4-diazepan-1-yl)sulfonyl)phenyl)phthalazin-1-amine, Formic Acid], the EC50 in [1] is > 15000 nM; in data set [2] (setting [11]), 620 nM; in data set [3] it was 17000 nM; in [5] it was 5600 nM; in [6] it was 94 nM. Besides, the CC50 in data set [8] came out at 14000 nM.
